Each structure is given as a SMILES string. Calls of active or inactive are those of the source. The rule behind the calls is not given here.

In this assay the test system is Broad 7084-01 inhibitor HTS, set 2. In words: inhibitors in Broad screen 7084-01, set 2 (AID 977613).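 Note: host cells are infected with parasite promastigotes that become internalized.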

With `CCCC#Cc1ccc([C@H]2[C@H]3CN(C(=O)c4cccnc4)CC(=O)N3[C@H]2CO)cc1`, the active concentration was > 10 µM (inactive).
The figure for `COc1ccccc1S(=O)(=O)N1CC[C@H]2[C@H](CO)Nc3ccc(-c4ccc(C#N)cc4)cc3[C@H]21` is > 10 µM (inactive).
On to `O=C(C1CCOCC1)N1CC(=O)N2[C@H](C1)[C@@H](c1ccc(C#CCc3ccccc3)cc1)[C@@H]2CO`, for which the active concentration is > 10 µM (inactive).
The figure for `COc1ccc(NC(=O)N2CCCCN3[C@H](CO)[C@@H](c4ccc(-c5ccccc5F)cc4)[C@@H]3C2)cc1` is > 10 µM (inactive).
`CCCNC(=O)N1CC(=O)N2[C@H](CO)[C@H](c3ccc(-c4ccc(F)cc4)cc3)[C@H]2C1`: the active concentration is > 10 µM (inactive).
In the case of `COC(=O)[C@@H]1[C@@H](CO)[C@@H]2Cn3c(ccc(C4=CCCC4)c3=O)[C@@H]2N1C(=O)Cc1cccnc1`, the active concentration was > 10 µM (inactive).
The result for `O=C(Nc1ccc(F)cc1)N1CC(=O)N2[C@H](CO)[C@H](c3ccc(C#Cc4cccnc4)cc3)[C@@H]2C1` reads > 10 µM (inactive).
For the compound `Cc1noc(C)c1NC(=O)N1C[C@@H](O)COC[C@H]2O[C@H](CC(=O)NCC3CCCCC3)CC[C@@H]21`, the active concentration was > 10 µM (inactive).
The result for `O=C(Nc1cccc(F)c1)N1C[C@@H]2[C@H](c3ccccc31)[C@H](CO)N2C(=O)Cc1ccccn1` reads > 10 µM (inactive).
Turning to `O=C(Cc1ccccc1)N1CC[C@@H]2[C@H](CO)Nc3ccc(C4=CCCCC4)cc3[C@@H]21`, the active concentration was > 10 µM (inactive).
With `CC=Cc1ccc2n(c1=O)C[C@H]1[C@H](CO)[C@@H](C(=O)OC)N(CCc3ccccc3)[C@@H]21` (mixture of isomers), the active concentration was > 10 µM (inactive).
The figure for `COc1ccc2c3c(n(C)c2c1)[C@H](CO)N(C(=O)Nc1ccc(F)cc1)CC31CCN(S(=O)(=O)c2cccc(C)c2)CC1` is > 10 µM (inactive); for `Cn1cnc(CCNC(=O)C[C@@H]2CC[C@@H]3[C@H](COC[C@@H](O)CN3C(=O)C3CC3)O2)c1` it is > 10 µM (inactive).
Take `O=C(C1CCOCC1)N1CC(=O)N2[C@@H](CO)[C@H](c3ccc(C#CCc4ccccc4)cc3)[C@@H]2C1`: the active concentration is > 10 µM (inactive).
Turning to `Cc1cccc(S(=O)(=O)N2CC[C@@H]3[C@H]2c2cc(C#Cc4ccccc4F)ccc2N[C@@H]3CO)c1`, the active concentration was > 10 µM (inactive).
For `O=C(Nc1ccccc1)N1CC(=O)N2[C@H](C1)[C@@H](c1ccc(C#CC3CCCCC3)cc1)[C@@H]2CO`, the active concentration was > 10 µM (inactive).
For the compound `CC(=O)N1CCCCN2[C@@H](CO)[C@H](c3ccc(-c4ccccc4)cc3)[C@@H]2C1`, the active concentration was > 10 µM (inactive).
The figure for `N#Cc1ccc(-c2ccc3c(c2)[C@H]2[C@H](CCN2C(=O)C2CCCCC2)[C@H](CO)N3)cc1` is > 10 µM (inactive); for `O=C(C[C@@H]1CC[C@H]2[C@@H](COC[C@@H](O)CN2S(=O)(=O)c2cccc(Cl)c2)O1)Nc1ccc(-c2ccccc2)cc1` it is > 10 µM (inactive); for `O=C(C1CCCC1)N1CC2(C1)[C@H](c1ccccc1)[C@@H](CO)N2CC1CC1` it is > 10 µM (inactive).
Regarding `Cc1ccccc1S(=O)(=O)N1CCCCN2[C@H](C1)[C@@H](c1ccc(C#CCN(C)C)cc1)[C@@H]2CO`, the active concentration is > 10 µM (inactive).
For the compound `CC(C)C#Cc1ccc([C@@H]2[C@@H](CO)N3C(=O)CN(C(=O)c4ccc5c(c4)OCO5)C[C@H]23)cc1`, the active concentration was > 10 µM (inactive).
Take `Cc1noc(C)c1NC(=O)Nc1ccc2c(c1)C(=O)N(C)[C@H]1CC[C@H](CC(=O)NCc3ccc(Cl)cc3)O[C@@H]1CO2`: the active concentration was > 10 µM (inactive).
The figure for `C/C=C/c1ccc([C@@H]2[C@H](CO)N(CC3CCOCC3)C23CN(S(=O)(=O)CC)C3)cc1` is > 10 µM (inactive); for `COc1ccc2c3c([nH]c2c1)[C@H](CO)N(C)CC31CCN(S(=O)(=O)c2ccc(C)cc2)CC1` it is > 10 µM (inactive).
On to `CCC(=O)N1CC2(C1)[C@@H](c1ccc(-c3cccc(C)c3)cc1)[C@@H](CO)N2S(C)(=O)=O`, for which the active concentration was > 10 µM (inactive).
Regarding `CN1[C@H](CO)[C@H]2c3ccccc3N(C(=O)Nc3ccccc3F)C[C@H]21`, the active concentration is > 10 µM (inactive).
As for `O=C(Nc1cccc(F)c1)N1CCCCN2[C@H](C1)[C@@H](c1ccc(C#Cc3cccnc3)cc1)[C@@H]2CO`, the active concentration was > 10 µM (inactive).
Consider `O=S(=O)(c1ccccc1)N1CC[C@@H]2[C@H]1c1cc(Br)ccc1N[C@@H]2CO`, for which the active concentration is > 10 µM (inactive).
For the compound `CN1CCCCN2[C@H](C1)[C@H](c1ccc(-c3ccc(F)cc3)cc1)[C@@H]2CO`, the active concentration is > 10 µM (inactive).
The figure for `COCC(=O)N1[C@H](C(=O)Nc2ccccc2)[C@@H](CO)[C@@H]2Cn3c(ccc(-c4cccnc4)c3=O)[C@@H]21` is > 10 µM (inactive); for `CCC(=O)N1CC2(C1)[C@@H](c1ccc(-c3cccc(C)c3)cc1)[C@H](CO)N2S(C)(=O)=O` it is > 10 µM (inactive); for `CN1CCN(C(=O)C[C@H]2CC[C@H]3[C@@H](COC[C@@H](O)CN3C(=O)C3CC3)O2)CC1` it is > 10 µM (inactive).
The result for `CN1c2ccc(Br)cc2[C@@H]2[C@@H](CCN2S(=O)(=O)c2cccc(F)c2)[C@@H]1CO` reads > 10 µM (inactive); that for `CCCNC(=O)N1CC(=O)N2[C@H](C1)[C@@H](c1ccc(-c3ccc(F)cc3)cc1)[C@@H]2CO`, > 10 µM (inactive); that for `CN1C(=O)c2cc(NC(=O)C3CCOCC3)ccc2OC[C@@H]2O[C@@H](CC(=O)NCCc3ccncc3)CC[C@H]21`, > 10 µM (inactive).
The figure for `COc1cccc(C#Cc2ccc([C@H]3[C@H](CO)N4C(=O)CN(C(=O)Cc5cccnc5)C[C@@H]34)cc2)c1` is > 10 µM (inactive).
Turning to `O=C(C[C@H]1CC[C@H]2[C@@H](COC[C@@H](O)CN2Cc2nccs2)O1)NCc1ccccc1`, the active concentration is > 10 µM (inactive).
Regarding `COc1ccc(-c2ccccc2[C@@H]2[C@@H](C#N)N(C(=O)NC3CCCCC3)[C@H]2CO)cc1`, the active concentration is > 10 µM (inactive).
On to `O=C(CN1CCOCC1)N1CC(=O)N2[C@H](CO)[C@H](c3ccc(-c4cccc(F)c4)cc3)[C@@H]2C1`, for which the active concentration was > 10 µM (inactive).
The figure for `CN(C)CC#Cc1ccc([C@H]2[C@H]3CN(C(=O)Nc4ccccc4F)CCCCN3[C@H]2CO)cc1` is > 10 µM (inactive); for `O=C(C[C@@H]1CC[C@@H]2[C@H](COC[C@H](O)CN2C(=O)Nc2ccc(Cl)cc2)O1)NCC1CC1` it is > 10 µM (inactive); for `O=C(C[C@H]1CC[C@H]2[C@@H](COC[C@H](O)CN2C(=O)Nc2ccc(Cl)c(Cl)c2)O1)NCc1ccc(Cl)cc1` it is > 10 µM (inactive).
The figure for `COc1ccc(-c2ccccc2[C@H]2[C@@H](CO)N(C(=O)NC(C)C)[C@H]2C#N)cc1` is > 10 µM (inactive); for `O=C(C[C@@H]1CC[C@H]2[C@@H](COC[C@@H](O)CN2Cc2cccc(C(F)(F)F)c2)O1)NCc1ccccc1` it is > 10 µM (inactive).
